Results reported in publication PMC10202811 (Nature Medicine, 2023).
Values joined by “and” are separate entries in the source; they are usually repeats but may differ in a detail not shown here. Equal values may be shown once.

Test: Plasma pharmacokinetics of lorlatinib at steady state (LC-MS/MS, non-compartmental analysis)
Type: in vivo, human
Design: Vz_F / Cmax_D / AUMClast / AUMC_TAU: unit not given here
Conditions: for Tlag: unit assumed
From the text: Lorlatinib was isolated from human plasma by a liquid-iquid extraction procedure. […] A linear-log trapezoidal method was used [NT] A best-fit method was used to estimate terminal elimination and to extrapolate any plasma concentration versus time profiles to compute [NT].

[1] = Cohort A1, 45 mg/m2 per dose, C1D15, Max, N 3
[2] = Cohort A1, 45 mg/m2 per dose, C1D15, Min, N 3
[3] = Cohort A1, 45 mg/m2 per dose, C1D15, individual patient
[4] = Cohort A1, 60 mg/m2 per dose, C1D15, Max, N 3
[5] = Cohort A1, 60 mg/m2 per dose, C1D15, Min, N 3
[6] = Cohort A1, 60 mg/m2 per dose, C1D15, individual patient
[7] = Cohort A1, 75 mg/m2 per dose, C1D15, Max, N 3
[8] = Cohort A1, 75 mg/m2 per dose, C1D15, Min, N 3
[9] = Cohort A1, 75 mg/m2 per dose, C1D15, individual patient
[10] = Cohort A1, 95 mg/m2 per dose, C1D15, Max, N 9
[11] = Cohort A1, 95 mg/m2 per dose, C1D15, Min, N 9
[12] = Cohort A1, 95 mg/m2 per dose, C1D15, individual patient
[13] = Cohort A1, 115 mg/m2 per dose, C1D15, Max, N 6
[14] = Cohort A1, 115 mg/m2 per dose, C1D15, Min, N 6
[15] = Cohort A1, 115 mg/m2 per dose, C1D15, individual patient
[16] = Cohort A2, 100 mg per dose, C1D15, Max, N 5
[17] = Cohort A2, 100 mg per dose, C1D15, Min, N 5
[18] = Cohort A2, 100 mg per dose, C1D15, individual patient
[19] = Cohort A2, 150 mg per dose, C1D15, Min, N 10
[20] = Cohort A2, 150 mg per dose, C1D15, individual patient
[21] = Cohort B2, 95 mg/m2 per dose, C1D15, Min, N 2
[22] = Cohort B2, 95 mg/m2 per dose, C1D15, individual patient
[23] = Cohort B2, 115 mg/m2 per dose, C1D15, Max, N 6
[24] = Cohort B2, 115 mg/m2 per dose, C1D15, Min, N 6
[25] = Cohort B2, 115 mg/m2 per dose, C1D15, individual patient
[26] = Cycle 1 Day 1, Cohort A1, 95 mg/m2 per dose
[27] = Cycle 1 Day 1, Cohort A1, 115 mg/m2 per dose
[28] = Cycle 1 Day 1, Cohort A2, 150 mg per dose
[29] = Cycle 1 Day 1, Cohort A2, 150 mg per dose, in h (unit assumed)
[30] = Cycle 1 Day 1, Cohort A2, 150 mg per dose, in ng·h/mL (unit assumed)

C[C@H]1Oc2cc(cnc2N)-c2c(nn(C)c2C#N)CN(C)C(=O)c2ccc(F)cc21 [Lorlatinib, (10R)-7-amino-12-fluoro-2,10,16-trimethyl-15-oxo-10,15,16,17-tetrahydro-2H-8,4-(metheno)pyrazolo[4,3-h][2,5,11]-benzoxadiazacyclotetradecine-3-carbonitrile]
AUCtau or Cmax at steady state with oral dispersion formulation (17 patients who received the oral dispersion formulation): no differences
CLss_F (Cohort A1, 45 mg/m2 per dose, C1D15, Geometric Mean, N 3): 15.376 L/h
AUC_TAU [1]: 3727.9 ng·h/mL
CLss_F [1]: 19.85 L/h
Cmax [1]: 639 ng/mL
Tmax [1]: 2 h
AUC_TAU [2]: 1259.74 ng·h/mL
Cmax [2]: 243 ng/mL
Tmax [2]: 1 h
AUC_TAU [3]: 1259.74 ng·h/mL and 3727.9 ng·h/mL
CLss_F [3]: 19.85 L/h and 12.41 L/h and 14.75 L/h
Cmax [3]: 639 ng/mL and 243 ng/mL
Tmax [3]: 2 h
CLss_F (Cohort A1, 60 mg/m2 per dose, C1D15, Geometric Mean, N 3): 13.223 L/h
AUC_TAU [4]: 4173.07 ng·h/mL
CLss_F [4]: 16.77 L/h
Cmax [4]: 623 ng/mL
Tmax [4]: 2 h
CLss_F (Cohort A1, 60 mg/m2 per dose, C1D15, Median, N 3): 12.07 L/h
AUC_TAU [5]: 3503.02 ng·h/mL
CLss_F [5]: 11.42 L/h
Cmax [5]: 343 ng/mL
Tmax [5]: 1 h
AUC_TAU [6]: 3503.02 ng·h/mL and 4173.07 ng·h/mL
CLss_F [6]: 12.07 L/h and 11.42 L/h and 16.77 L/h
Cmax [6]: 343 ng/mL
Tmax [6]: 2 h
CLss_F (Cohort A1, 75 mg/m2 per dose, C1D15, Geometric Mean, N 3): 15.412 L/h
AUC_TAU [7]: 6555.75 ng·h/mL
CLss_F [7]: 18.36 L/h
Cmax [7]: 670 ng/mL
Tmax [7]: 6 h
CLss_F (Cohort A1, 75 mg/m2 per dose, C1D15, Median, N 3): 17.43 L/h
AUC_TAU [8]: 2723.69 ng·h/mL
CLss_F [8]: 11.44 L/h
Cmax [8]: 609 ng/mL
Tmax [8]: 1 h
AUC_TAU [9]: 6555.75 ng·h/mL and 2723.69 ng·h/mL
CLss_F [9]: 11.44 L/h and 17.43 L/h and 18.36 L/h
Cmax [9]: 609 ng/mL and 670 ng/mL
Tmax [9]: 6 h and 2 h
CLss_F (Cohort A1, 95 mg/m2 per dose, C1D15, Geometric Mean, N 9): 9.802 L/h
AUC_TAU [10]: 14697.9 ng·h/mL
CLss_F [10]: 14.62 L/h
Cmax [10]: 1880 ng/mL
CLss_F (Cohort A1, 95 mg/m2 per dose, C1D15, Median, N 9): 10.12 L/h
AUC_TAU [11]: 3760.87 ng·h/mL
CLss_F [11]: 6.46 L/h
Cmax [11]: 590 ng/mL
Tmax [11]: 1 h
AUC_TAU [12]: 14697.9 ng·h/mL and 11566.7 ng·h/mL and 5234.23 ng·h/mL and 6616.73 ng·h/mL and 4786.75 ng·h/mL and 7725.79 ng·h/mL and 3760.87 ng·h/mL and 12827.9 ng·h/mL
CLss_F [12]: 6.46 L/h and 12.54 L/h and 10.51 L/h and 8.31 L/h and 12.53 L/h and 7.77 L/h and 10.12 L/h and 14.62 L/h and 8.19 L/h
Cmax [12]: 1420 ng/mL and 607 ng/mL and 842 ng/mL and 590 ng/mL and 1230 ng/mL and 1220 ng/mL and 938 ng/mL and 1880 ng/mL
Tmax [12]: 2 h
CLss_F (Cohort A1, 115 mg/m2 per dose, C1D15, Geometric Mean, N 6): 11.462 L/h
AUC_TAU [13]: 14092.4 ng·h/mL
CLss_F [13]: 16.79 L/h
Cmax [13]: 2090 ng/mL
CLss_F (Cohort A1, 115 mg/m2 per dose, C1D15, Median, N 6): 10.95 L/h
AUC_TAU [14]: 5878.52 ng·h/mL
CLss_F [14]: 7.45 L/h
Cmax [14]: 708 ng/mL
Tmax [14]: 1 h
AUC_TAU [15]: 8206.77 ng·h/mL and 6238.52 ng·h/mL and 11011.1 ng·h/mL and 5878.52 ng·h/mL and 8933.2 ng·h/mL and 14092.4 ng·h/mL
CLss_F [15]: 15.84 L/h and 9.62 L/h and 9.99 L/h and 11.91 L/h and 16.79 L/h and 7.45 L/h
Cmax [15]: 708 ng/mL and 1210 ng/mL and 1530 ng/mL and 859 ng/mL and 2090 ng/mL
Tmax [15]: 2 h
CLss_F (Cohort A2, 100 mg per dose, C1D15, Geometric Mean, N 5): 14.731 L/h
AUC_TAU [16]: 16686 ng·h/mL
CLss_F [16]: 32.13 L/h
Cmax [16]: 1830 ng/mL
CLss_F (Cohort A2, 100 mg per dose, C1D15, Median, N 5): 16.3 L/h
AUC_TAU [17]: 3111.99 ng·h/mL
CLss_F [17]: 5.99 L/h
Cmax [17]: 341 ng/mL
Tmax [17]: 1 h
AUC_TAU [18]: 16686 ng·h/mL and 10710.2 ng·h/mL and 3111.99 ng·h/mL and 4225.59 ng·h/mL
CLss_F [18]: 5.99 L/h and 9.34 L/h and 32.13 L/h and 16.3 L/h and 23.67 L/h
Cmax [18]: 1830 ng/mL and 1630 ng/mL and 341 ng/mL and 528 ng/mL
Tmax [18]: 2 h
AUC_TAU (Cohort A2, 150 mg per dose, C1D15, Max, N 10): 8297.22 ng·h/mL
AUC_TAU [19]: 4999.09 ng·h/mL
Cmax [19]: 502 ng/mL
Tmax [19]: 1 h
AUC_TAU [20]: 7380.68 ng·h/mL and 6784.89 ng·h/mL and 4999.09 ng·h/mL and 5689.56 ng·h/mL and 7693.93 ng·h/mL and 6576.81 ng·h/mL and 7115.87 ng·h/mL and 7004.8 ng·h/mL and 8297.22 ng·h/mL
CLss_F [20]: 25.34 L/h and 20.32 L/h and 22.11 L/h and 30.01 L/h and 26.36 L/h and 19.5 L/h and 22.81 L/h and 21.08 L/h
Cmax [20]: 647 ng/mL and 750 ng/mL and 502 ng/mL and 670 ng/mL and 912 ng/mL and 943 ng/mL and 602 ng/mL and 814 ng/mL
Tmax [20]: 2 h
AUC_TAU [21]: 5523.12 ng·h/mL
Cmax [21]: 721 ng/mL
Tmax [21]: 2 h
AUC_TAU [22]: 5523.12 ng·h/mL
Cmax [22]: 721 ng/mL
Tmax [22]: 2 h
CLss_F (Cohort B2, 115 mg/m2 per dose, C1D15, Geometric Mean, N 6): 13.049 L/h
AUC_TAU [23]: 17825.7 ng·h/mL
CLss_F [23]: 20.8 L/h
Cmax [23]: 2190 ng/mL
Tmax [23]: 2 h
CLss_F (Cohort B2, 115 mg/m2 per dose, C1D15, Median, N 6): 12.47 L/h
AUC_TAU [24]: 5493.74 ng·h/mL
CLss_F [24]: 7.85 L/h
Cmax [24]: 766 ng/mL
Tmax [24]: 1 h
AUC_TAU [25]: 17825.7 ng·h/mL and 6932.9 ng·h/mL and 8905.09 ng·h/mL and 5493.74 ng·h/mL and 6008.87 ng·h/mL and 6951.39 ng·h/mL
Cmax [25]: 2190 ng/mL and 1680 ng/mL and 1330 ng/mL and 766 ng/mL
Tmax [25]: 2 h
Tlast [26]: 24 h
Tmax (Cycle 1 Day 1, Cohort A1, 95 mg/m2 per dose, listed as lorlatinib, in h (unit assumed)): 2
Tlag [26]: 0 h
Tlast [27]: 24 h
Tmax (Cycle 1 Day 1, Cohort A1, 115 mg/m2 per dose, in h (unit assumed)): 1
Tmax (Cycle 1 Day 1, Cohort A1, 115 mg/m2 per dose, listed as lorlatinib, in h (unit assumed)): 2
Tlag [27]: 0 h
AUMClast [28]: 83897.37077 and 79949.21779 and 69497.95951 and 102751.9946 and 91445.2354 and 87523.98089 and 72181.31228
Tlast [28]: 24 h
MRTlast [29]: 8.731 and 10.12 and 8.547 and 10.11 and 9.639 and 8.636
Tmax [29]: 2
Clast (Cycle 1 Day 1, Cohort A2, 150 mg per dose, in ng/mL): 158 and 127 and 138 and 146 and 206
AUCall [30]: 9157 and 6869 and 12022.44647 and 9046 and 9080
AUClast [30]: 9157 and 6869 and 12022.44647 and 9046 and 9080 and 8359
